Assay results from ChEMBL document CHEMBL5584236, “Development of novel bisphenol derivatives with a membrane-targeting mechanism as potent gram-positive antibacterial agents” (Eur J Med Chem, 2024).
Activity calls are given as the source filed them. The rule behind the calls is not given here.

What was measured:
Staphylococcus aureus [1] = test: Disruption of cell membrane integrity in methicillin-resistant Staphylococcus aureus NCTC10442 assessed as increase in red fluorescence at 8 time of MIC measured after 15 mins by SYTO 9/PI staining based laser confocal microscopic analysis; type: functional, organism-based
Staphylococcus aureus [2] = test: Antibacterial activity against methicillin-resistant Staphylococcus aureus N315 assessed as reduction in bacterial growth incubated for 22 to 24 hrs in presence of CaCl2 by CLSI based broth microdilution method; type: functional; details: time 22-24 hrs
Staphylococcus aureus [3] = test: Antibacterial activity against methicillin-resistant Staphylococcus aureus NCTC10442 assessed as reduction in bacterial growth incubated for 22 to 24 hrs in presence of MgCl2 by CLSI based broth microdilution method; type: functional; details: time 22-24 hrs
Staphylococcus aureus [4] = test: Synergistic […] activity against Staphylococcus aureus ATCC29213 assessed as fractional inhibitory concentration index incubated for 22 to 24 hrs in presence of teicoplanin by CLSI based broth microdilution method; type: functional; details: time 22-24 hrs
Staphylococcus aureus [5] = test: Synergistic […] activity against Staphylococcus aureus ATCC29213 assessed as fractional inhibitory concentration index incubated for 22 to 24 hrs in presence of tobramycin by CLSI based broth microdilution method; type: functional; details: time 22-24 hrs
Klebsiella pneumoniae = test: Synergistic […] activity against Klebsiella pneumoniae ATCC10031 assessed as fractional inhibitory concentration index incubated for 22 to 24 hrs in presence of amikacin by CLSI based broth microdilution method; type: functional; details: time 22-24 hrs
Acinetobacter baumannii [6] = test: Synergistic […] activity against Acinetobacter baumannii ATCC17978 assessed as fractional inhibitory concentration index incubated for 22 to 24 hrs in presence of levofloxacin by CLSI based broth microdilution method; type: functional; details: time 22-24 hrs
Acinetobacter baumannii [7] = test: Synergistic […] activity against Acinetobacter baumannii ATCC17978 assessed as fractional inhibitory concentration index incubated for 22 to 24 hrs in presence of gentamicin by CLSI based broth microdilution method; type: functional; details: time 22-24 hrs
Acinetobacter baumannii [8] = test: Synergistic […] activity against Acinetobacter baumannii ATCC17978 assessed as fractional inhibitory concentration index incubated for 22 to 24 hrs in presence of amikacin by CLSI based broth microdilution method; type: functional; details: time 22-24 hrs
[9] = Cytotoxicity against HEK293 cells assessed as viable cells at 3.125 ug/ml incubated for 24 hrs by CCK-8 assay relative to control; type: toxicity, cell-based; details: human, at 3.125 µg/mL, read-out: Activity
[10] = Cytotoxicity against HEK293 cells assessed as viable cells at 50 ug/ml incubated for 24 hrs by CCK-8 assay relative to control; type: toxicity, cell-based; details: human, at 50 µg/mL, read-out: Activity

In the case of `COC(=O)[C@H](CCCNC(=N)N)NC(=O)[C@H](CCCNC(=N)N)NC(=O)COc1ccc(S(=O)(=O)c2ccc(OC/C=C(/C)CCC=C(C)C)cc2)cc1`, the Activity (Staphylococcus aureus [1]) is reported as “Active”, the MIC (Staphylococcus aureus [2]) is reported as 3.12 µg/mL and the MIC (Staphylococcus aureus [3]) is reported as 1.56 µg/mL. For the same molecule, the “fractional inhibitory concentration index (FICI)” value (Staphylococcus aureus [4]) was 0.31, the “fractional inhibitory concentration index (FICI)” value (Staphylococcus aureus [5]) was 0.38 and the “fractional inhibitory concentration index (FICI)” value (Klebsiella pneumoniae) was 0.31. For the same molecule, the “fractional inhibitory concentration index (FICI)” value (Acinetobacter baumannii [6]) was 0.25, the “fractional inhibitory concentration index (FICI)” value (Acinetobacter baumannii [7]) was 0.28 and the “fractional inhibitory concentration index (FICI)” value (Acinetobacter baumannii [8]) was 0.28. It also gave a viability at 24 h, 3.125 ug/ml [9] of 102% and a viability at 24 h, 50 ug/ml [10] of 91.5%.
